Results as given in PMC9944328 (Nature Communications, 2023).
“Also recorded” adds a separate entry of the source. Where two headings read alike, the source gives them in different places.

Tests used:
SSTR3 = target: T1, SSTR3 (Homo sapiens, UniProt P32745); experiment: SSTRs Gi-mediated cAMP inhibition, GloSensor, HEK293 (SSTR3 wild-type); assay type: cell-based; parameters: Bottom / Top / Span / Top (best-fit): unit not given here
T1 construct: The human full-length SSTRs and mutants were cloned into the pcDNA3.1+ vector; expressed in transfected cells; host or cells: HEK293 (ATCC, CRL-1573)
T1 sequence (P32745 whole entry): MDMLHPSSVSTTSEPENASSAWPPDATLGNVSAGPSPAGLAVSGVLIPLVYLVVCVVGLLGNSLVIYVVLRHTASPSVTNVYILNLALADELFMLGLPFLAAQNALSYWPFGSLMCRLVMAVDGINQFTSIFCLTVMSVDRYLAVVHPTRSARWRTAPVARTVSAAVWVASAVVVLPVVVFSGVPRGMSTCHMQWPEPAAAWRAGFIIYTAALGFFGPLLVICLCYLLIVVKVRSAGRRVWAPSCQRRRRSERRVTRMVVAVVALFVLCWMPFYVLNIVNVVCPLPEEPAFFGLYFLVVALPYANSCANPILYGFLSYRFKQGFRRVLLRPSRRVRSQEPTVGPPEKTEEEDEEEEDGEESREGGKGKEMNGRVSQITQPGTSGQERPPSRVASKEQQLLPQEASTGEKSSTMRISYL
Method: (§1) The levels of the intracellular 3′, 5′-cyclic AMP (cAMP) were measured by the GloSensor cAMP assay (Promega) as described in the previous studies[28],[41] which has been widely used. The human full-length SSTRs and mutants were cloned into the pcDNA3.1+ vector with a HA signal sequence followed by a Flag tag at the N-terminus. […] Cells were then co-transfected with SSTR wild-type or mutants and GloSensor plasmids. After 24 h of transfection, the cells were dissociated with TrypLE™ Express Enzyme (1X) (Thermo Fisher Scientific) and collected by centrifugation at 500 × g for 5 min. Then the collected cells were suspended in Hank’s balanced salt solution [HBSS (Thermo Fisher Scientific)] supplemented with […] potassium salt solution (YEASEN), and then the suspension cells were seeded into 96-well plates with 90 μl/well. After incubating at room temperature for 40 min, 5 μM forskolin and ligands diluted in HBSS were added to each well and the plates were incubated at room temperature for 15 min. […] signals were measured using the Synergy H1 microplate reader (BioTek) and the data presented are means of at least three independent experiments.

GH3 cells = experiment: Cell apoptosis assay, Annexin V-FITC/PI flow cytometry, GH3 cells overexpressing SSTR2, 48 h; assay type: cell-based, rat
Method: The rat pituitary GH3 cells (ATCC, CCL-82.1) were seeded in 12-well plates at 1.5 × 10^5/well. […] Then, the cells were collected for the apoptosis assay according to the instruction of the Annexin V-FITC/PI apoptosis detection kit (BD Biosciences). Briefly, the cells were washed with cold PBS and resuspended in 1 × binding buffer. Then, 5 μl of Annexin V-FITC was added and incubated for 10 min and stained with 5 μl of PI for 5 min in the dark at room temperature. All samples were acquired by a Novocyte flow cytometer (ACEA Biosciences, China), and data were analyzed with NovoExpress^TM software.

SSTR2 [1] = experiment: Bias factor (β value), Gi cAMP inhibition versus β-arrestin recruitment; assay type: cell-based, human
Method: as §1
The NanoBiT β-arrestin 1 recruitment assays were carried out according to the method described previously. […] Human full-length SSTR wild-type and mutant vectors were C-terminally fused with a 15-amino acid flexible linker and the small fragment (SmBiT). HEK293 cells were seeded into six-well microplates at a density of 1.0 × 10^6 cells/well and cultured for 24 h at 37 °C with 5% CO2. After that, cells were co-transfected with pcDNA3.1+ vectors encoding SSTR wild-type or mutants and human β-arrestin 1. After transfecting for 24 h, the transfected cells were suspended and seeded into white 96-well plates, and then cultured at 37 °C overnight. After that the medium in each well was exchanged for 90 μl of 0.01% bovine serum albumin containing 20 μl of 50 μM coelenterazine h (Carbosynth) diluted in the HBSS assay buffer and incubated for 40 min at room temperature. Then, ligands diluted in the assay buffer was added to each well and the luminescence intensity was measured using the Synergy H1 microplate reader and detected at room temperature in a time period. All data presented are means of at least three independent experiments.
All data in this study were analyzed using GraphPad Prism 7 and were expressed as the error bars and the standard error of means ± SEM from at least n = 3 biologically independent experiments performed in triplicate. All curve data were normalized to the maximal wild-type and processed using a sigmoidal dose response curve in GraphPad Prism 7. Statistical differences between conditions were determined by one-way of variance ANOVA with Dunnett’s test or T-test.

SSTR2 mutants = SSTR2 mutants (Homo sapiens, UniProt P30874, I284A); experiment: Bystander BRET endosomal trafficking (β-arrestin 1-Nluc, FYVE-mVenus), HEK293 (SSTR2 mutants); details: for Bottom: best-fit value;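 for all read-outs here: Read-out is the BRET ratio between Nluc-fused β-arrestin 1 and the early endosome marker FYVE-mVenus, measured after ligand addition with coelenterazine h as substrate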
Sequence of SSTR2 mutants (P30874 whole entry I284A, the tested form may be a part): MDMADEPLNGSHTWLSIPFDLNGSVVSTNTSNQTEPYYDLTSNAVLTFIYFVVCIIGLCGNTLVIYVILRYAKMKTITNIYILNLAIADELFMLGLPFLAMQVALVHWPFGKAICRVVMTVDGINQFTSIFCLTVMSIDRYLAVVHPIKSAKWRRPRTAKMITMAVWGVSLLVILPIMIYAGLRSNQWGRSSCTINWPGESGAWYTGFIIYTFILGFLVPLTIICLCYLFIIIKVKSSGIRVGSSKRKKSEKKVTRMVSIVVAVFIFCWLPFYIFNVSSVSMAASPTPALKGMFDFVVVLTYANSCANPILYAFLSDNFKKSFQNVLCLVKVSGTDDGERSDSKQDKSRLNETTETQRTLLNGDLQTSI

SSTR2 [2] = target: SSTR2 (Homo sapiens, UniProt P30874); experiment: Bystander BRET endosomal trafficking (β-arrestin 1-Nluc, FYVE-mVenus), HEK293 (SSTR2 wild-type); assay type: cell-based; parameters: The human full-length SSTRs and mutants were cloned into the pcDNA3.1+ vector; expressed in transfected cells; host or cells: HEK293; details: for Bottom / LogEC50 / Span / Top: best-fit value;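 for all read-outs here: HEK293 cells coexpressing Nluc-tagged β-arrestin 1 and mVenus-fused FYVE endosomal marker, bystander BRET ratio read after ligand addition, coelenterazine h substrate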
Sequence of SSTR2 (Homo sapiens, UniProt P30874) (P30874 whole entry, the tested form may be a part): as the sequence (P30874 whole entry I284A, the tested form may be a part) above, with A284I counted along it
Method: Wild-type or mutant SSTR2, β-arrestin 1-Nluc and FYVE-mVenus were co-transfected in HEK293 cells at a ratio of 1:0.5:4 on six-well plates. The next day, the transfected cells were plated on white 96-well and incubated overnight, and then cells were incubated with 90 µL HBSS containing 20 mM HEPES and coelenterazine h (5 µM) at room temperature for 40 min. After incubation, ligand was added and the signal was measured using the Synergy H1 microplate reader (BioTek) to determine a BRET ratio.

[3] = best-fit, SSTR3 WT-1 (F296D set)
[4] = best-fit, SSTR3 WT-1 (H192T set)
[5] = best-fit, SSTR3 WT-1 (M193I set)
[6] = best-fit, SSTR3 WT-1 (N101V set)
[7] = best-fit, SSTR3 WT-2 (F296D set)
[8] = best-fit, SSTR3 WT-2 (H192T set)
[9] = best-fit, SSTR3 WT-2 (M193I set)
[10] = best-fit, SSTR3 WT-2 (N101V set)
[11] = best-fit, SSTR3 WT-3 (F296D set)
[12] = best-fit, SSTR3 WT-3 (M193I set)
[13] = best-fit, SSTR3 WT-3 (N101V set)
[14] = WT-1 (F265A, I284A, K291A blocks)
[15] = WT-2 (F265A, I284A, K291A blocks)
[16] = WT-2 of N276A block = WT-3 of F294A block
[17] = WT-3 (F265A, I284A, K291A blocks)
[18] = WT-3 of N276A block = WT-2 of F294A block

N#Cc1cccc(-c2ccc3ncc(-c4cc(F)cc(F)c4)c(N4CCC(N)CC4)c3c2)c1O [paltusotine]
EC50 (SSTR3): 0.0026 µM
Emax (SSTR3; HEK293, Suppl. Tables 4/5, SSTR3-WT, n=5): 36.7 ± 11.7%
Fold of WT (SSTR3; Suppl. Tables 4/5, SSTR3-WT): 1
EC50 (SSTR3; Suppl. Tables 4/5, SSTR3-WT, n=5, read-out: EC50): 0.0638 ± 0.00133 µM
Bottom (SSTR3; [3]): 7.289
LogEC50 (SSTR3; [3]): -5.765
Span (SSTR3; [3]): 89.66
Top (SSTR3; [3]): 96.95
Bottom (SSTR3; [4]): -24.33
LogEC50 (SSTR3; [4]): -7.352
Span (SSTR3; [4]): 140.2
Top (SSTR3; [4]): 115.9
EC50 (SSTR3; best-fit, SSTR3 WT-1 (H192T set), read-out: EC50): 0.0445 µM
Bottom (SSTR3; [5]): 2.721
LogEC50 (SSTR3; [5]): -7.195
Span (SSTR3; [5]): 103.1
Top (SSTR3; [5]): 105.9
EC50 (SSTR3; best-fit, SSTR3 WT-1 (M193I set), read-out: EC50): 0.0638 µM
Bottom (SSTR3; [6]): 2.721
LogEC50 (SSTR3; [6]): -7.195
Span (SSTR3; [6]): 103.1
Top (SSTR3; [6]): 105.9
EC50 (SSTR3; best-fit, SSTR3 WT-1 (N101V set), read-out: EC50): 0.0638 µM
Bottom (SSTR3; [7]): 2.721
LogEC50 (SSTR3; [7]): -7.195
Span (SSTR3; [7]): 103.1
Top (SSTR3; [7]): 105.9
EC50 (SSTR3; best-fit, SSTR3 WT-2 (F296D set), read-out: EC50): 0.0638 µM
Bottom (SSTR3; [8]): -19.9
LogEC50 (SSTR3; [8]): -7.557
Span (SSTR3; [8]): 137.3
Top (SSTR3; [8]): 117.4
EC50 (SSTR3; best-fit, SSTR3 WT-2 (H192T set), read-out: EC50): 0.0277 µM
Bottom (SSTR3; [9]): -0.9229
LogEC50 (SSTR3; [9]): -7.198
Span (SSTR3; [9]): 106.7
Top (SSTR3; [9]): 105.8
EC50 (SSTR3; best-fit, SSTR3 WT-2 (M193I set), read-out: EC50): 0.0634 µM
Bottom (SSTR3; [10]): -0.442
LogEC50 (SSTR3; [10]): -8.585
Span (SSTR3; [10]): 97.55
Top (SSTR3; [10]): 97.11
Bottom (SSTR3; [11]): -0.9229
LogEC50 (SSTR3; [11]): -7.198
Span (SSTR3; [11]): 106.7
Top (SSTR3; [11]): 105.8
EC50 (SSTR3; best-fit, SSTR3 WT-3 (F296D set), read-out: EC50): 0.0634 µM
Bottom (SSTR3; [12]): -0.442
LogEC50 (SSTR3; [12]): -8.585
Span (SSTR3; [12]): 97.55
Top (SSTR3; [12]): 97.11
Bottom (SSTR3; [13]): -0.9229
LogEC50 (SSTR3; [13]): -7.198
Span (SSTR3; [13]): 106.7
Top (SSTR3; [13]): 105.8
EC50 (SSTR3; best-fit, SSTR3 WT-3 (N101V set), read-out: EC50): 0.0634 µM
Apoptotic rate versus octreotide (GH3 cells): increased apoptotic rate
Proapoptotic activity (GH3 cells): able to activate proapoptotic pathways
Effect of microswitch mutations (SSTR2 [1]; CWxP, PIF, DRY and NPxxY motif mutants versus wild-type SSTR2): decreased the potency of β-arrestin recruitment more markedly than the activation ability of Gi signaling
Effect of mutants on both signals (SSTR2 [1]; D122(3.32) and Q126(3.36) mutants): markedly affected both β-arrestin and Gi signal
Signal bias (SSTR2 [1]; SSTR2, compared with octreotide): more G protein-biased ligand than octreotide; also recorded: better G-protein-biased agonist of SSTR2 compared with octreotide
EC50 (SSTR2 mutants): 0.0898 ± 0.00128 µM
Emax (SSTR2 mutants; HEK293): 106 ± 6.25%
Bottom (SSTR2 mutants; I284A-1 (run 1)): -0.6254
Bottom (SSTR2 mutants; I284A-2 (run 2)): 1.24
Bottom (SSTR2 mutants; I284A-3 (run 3)): 0.1294
Fold of WT (SSTR2 [2]; Bystander BRET EC50, SSTR2-WT): 1.00
EC50 (SSTR2 [2]; EC50, Bystander BRET, SSTR2-WT, n=6): 0.122 ± 0.00131 µM
EC50 (SSTR2 [2]; EC50, best-fit value, WT-1 (F265A, I284A, K291A blocks)): 0.0404 µM
EC50 (SSTR2 [2]; EC50, best-fit value, WT-1 (N276A, F294A blocks)): 0.25 µM
EC50 (SSTR2 [2]; EC50, best-fit value, WT-2 (F265A, I284A, K291A blocks)): 0.131 µM
EC50 (SSTR2 [2]; EC50, best-fit value, WT-2 of N276A block = WT-3 of F294A block): 0.219 µM
EC50 (SSTR2 [2]; EC50, best-fit value, WT-3 (F265A, I284A, K291A blocks)): 0.0585 µM
EC50 (SSTR2 [2]; EC50, best-fit value, WT-3 of N276A block = WT-2 of F294A block): 0.202 µM
Emax (SSTR2 [2]; HEK293): 100%
Bottom (best-fit) (SSTR2 [2]; WT-1 (run 1)): 1.413
LogEC50 (best-fit) (SSTR2 [2]; WT-1 (run 1)): -7.394
Span (best-fit) (SSTR2 [2]; WT-1 (run 1)): 100
Top (best-fit) (SSTR2 [2]; WT-1 (run 1)): 101.4
Bottom (best-fit) (SSTR2 [2]; WT-2 (run 2)): -7.096
LogEC50 (best-fit) (SSTR2 [2]; WT-2 (run 2)): -6.882
Span (best-fit) (SSTR2 [2]; WT-2 (run 2)): 113.5
Top (best-fit) (SSTR2 [2]; WT-2 (run 2)): 106.4
Bottom (best-fit) (SSTR2 [2]; WT-3 (run 3)): -1.006
LogEC50 (best-fit) (SSTR2 [2]; WT-3 (run 3)): -7.233
Span (best-fit) (SSTR2 [2]; WT-3 (run 3)): 104.3
Top (best-fit) (SSTR2 [2]; WT-3 (run 3)): 103.3
Bottom (SSTR2 [2]; [14]): 1.413
LogEC50 (SSTR2 [2]; [14]): -7.394
Span (SSTR2 [2]; [14]): 100
Top (SSTR2 [2]; [14]): 101.4
Bottom (SSTR2 [2]; WT-1 (N276A, F294A blocks)): -1.996
LogEC50 (SSTR2 [2]; WT-1 (N276A, F294A blocks)): -6.603
Span (SSTR2 [2]; WT-1 (N276A, F294A blocks)): 108.2
Top (SSTR2 [2]; WT-1 (N276A, F294A blocks)): 106.2
Bottom (SSTR2 [2]; [15]): -7.096
LogEC50 (SSTR2 [2]; [15]): -6.882
Span (SSTR2 [2]; [15]): 113.5
Top (SSTR2 [2]; [15]): 106.4
Bottom (SSTR2 [2]; [16]): -1.129
LogEC50 (SSTR2 [2]; [16]): -6.66
Span (SSTR2 [2]; [16]): 107.2
Top (SSTR2 [2]; [16]): 106.1
Bottom (SSTR2 [2]; [17]): -1.006
LogEC50 (SSTR2 [2]; [17]): -7.233
Span (SSTR2 [2]; [17]): 104.3
Top (SSTR2 [2]; [17]): 103.3
Bottom (SSTR2 [2]; [18]): -1.982
LogEC50 (SSTR2 [2]; [18]): -6.696
Span (SSTR2 [2]; [18]): 107.7
Top (SSTR2 [2]; [18]): 105.7
